Measured values: ChEMBL document CHEMBL4715869, “N-(Pyrimidin-2-yl)-1,2,3,4-tetrahydroisoquinolin-6-amine Derivatives as Selective Janus Kinase 2 Inhibitors for the Treatment of Myeloproliferative Neoplasms” (J Med Chem, 2020)

Experiments:
Homo sapiens = organism: Homo sapiens; test: Selectivity index, ratio of IC50 for inhibition of FLT3 ITD mutant in human MOLM13 cells to IC50 for inhibition of JAK2 V617F mutant in human SET-2 cells; assay type: cell-based
[1] = system: Receptor-type tyrosine-protein kinase FLT3 (Homo sapiens), P36888 [UNDEFINED MUTATION]; test: Inhibition of FLT3 ITD mutant in human MOLM13 cells assessed as residual activity at 100 nM relative to control; assay type: cell-based; details: MOLM-13
[2] = molecular target: Tyrosine-protein kinase JAK1 (Homo sapiens, UniProt P23458); test: Inhibition of human JAK1 (866 to end residues) using GEEPLYWSFPAKKK as substrate after 40 mins by [gamma-33ATP] radiometric assay
[3] = molecular target: Tyrosine-protein kinase JAK2 (Homo sapiens, UniProt O60674); test: Inhibition of recombinant human JAK2 (808 to end residues) KTFCGTPEYLAPEVRREPRILSEEEQEMFRDFDYIADWC as substrate measured after 40 mins in presence of [gamm33P]ATP by scintillation counting method
[4] = molecular target: T1, Tyrosine-protein kinase JAK3 (Homo sapiens, UniProt P52333); test: Inhibition of recombinant human JAK3 (781 to end residues) using GGEEEEYFELVKKKK as substrate measured after 40 mins in presence of [gamm33P]ATP by scintillation counting method
T1 sequence (P52333 whole entry): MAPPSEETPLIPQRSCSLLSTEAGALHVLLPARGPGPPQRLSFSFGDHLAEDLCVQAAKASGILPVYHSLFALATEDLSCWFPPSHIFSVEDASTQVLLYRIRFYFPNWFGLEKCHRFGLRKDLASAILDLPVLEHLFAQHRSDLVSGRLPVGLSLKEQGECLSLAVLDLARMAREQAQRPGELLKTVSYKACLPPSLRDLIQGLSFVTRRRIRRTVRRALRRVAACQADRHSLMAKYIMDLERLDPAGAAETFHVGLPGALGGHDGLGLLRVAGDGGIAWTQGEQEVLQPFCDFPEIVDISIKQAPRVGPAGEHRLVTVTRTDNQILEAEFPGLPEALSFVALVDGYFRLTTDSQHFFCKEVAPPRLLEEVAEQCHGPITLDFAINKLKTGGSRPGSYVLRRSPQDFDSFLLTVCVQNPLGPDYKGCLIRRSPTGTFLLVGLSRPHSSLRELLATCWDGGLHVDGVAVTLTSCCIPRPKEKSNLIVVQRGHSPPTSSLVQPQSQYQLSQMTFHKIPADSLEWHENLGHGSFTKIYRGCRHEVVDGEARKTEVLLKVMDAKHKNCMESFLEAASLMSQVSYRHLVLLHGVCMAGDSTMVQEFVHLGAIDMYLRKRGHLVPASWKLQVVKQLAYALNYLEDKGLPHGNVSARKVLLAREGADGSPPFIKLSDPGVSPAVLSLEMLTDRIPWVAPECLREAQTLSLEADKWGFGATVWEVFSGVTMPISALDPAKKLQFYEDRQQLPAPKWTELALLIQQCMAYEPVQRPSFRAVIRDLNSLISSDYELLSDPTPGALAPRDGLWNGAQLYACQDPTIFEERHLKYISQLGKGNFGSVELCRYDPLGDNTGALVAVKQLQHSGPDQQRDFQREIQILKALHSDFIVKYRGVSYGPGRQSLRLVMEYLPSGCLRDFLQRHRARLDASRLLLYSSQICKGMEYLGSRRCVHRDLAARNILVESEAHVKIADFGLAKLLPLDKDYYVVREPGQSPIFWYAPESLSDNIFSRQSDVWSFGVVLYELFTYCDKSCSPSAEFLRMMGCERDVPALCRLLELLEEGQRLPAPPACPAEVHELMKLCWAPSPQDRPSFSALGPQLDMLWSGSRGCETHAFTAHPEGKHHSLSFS

[5] = molecular target: Non-receptor tyrosine-protein kinase TYK2 (Homo sapiens, UniProt P29597); test: Inhibition of recombinant human TYK2 (875 to end residues) using GGMEDIYFEFMGGKKK as substrate incubated for 40 mins in presence of [gamma33P]ATP by scintillation counting based radiometry assay
[6] = molecular target: Receptor-type tyrosine-protein kinase FLT3 (Homo sapiens, UniProt P36888, D835Y); test: Inhibition of recombinant human FLT3 D835Y mutant (564 to end residues) using EAIYAAPFAKKK as substrate at 40 mins in presence of [gamma-33ATP] by scintillation counting based radiometry assay
[7] = Selectivity index, ratio of IC50 for inhibition of human JAK1 (866 to end residues) to IC50 for inhibition of recombinant human JAK2 (808 to end residues)
[8] = Selectivity index, ratio of IC50 for inhibition of recombinant human JAK3 (781 to end residues) to IC50 for inhibition of recombinant human JAK2 (808 to end residues)
[9] = Selectivity index, ratio of IC50 for inhibition of recombinant human TYK2 (875 to end residues) to IC50 for inhibition of recombinant human JAK2 (808 to end residues)
[10] = Selectivity index, ratio of IC50 for inhibition of recombinant human FLT3 D835Y mutant (564 to end residues) to IC50 for inhibition of recombinant human JAK2 (808 to end residues)
Vero = test: Cytotoxicity against African green monkey Vero cells assessed as reduction in cell viability incubated for 72 hrs by MTT assay; assay type: cell-based; details: Chlorocebus sabaeus
[11] = Cytotoxicity against rat H9c2(2-1) cells assessed as reduction in cell viability incubated for 72 hrs by MTT assay; assay type: cell-based; details: H9c2, 72 h
L02 = test: Cytotoxicity against human L02 cells assessed as reduction in cell viability incubated for 72 hrs by MTT assay; assay type: cell-based; details: L02, 72 h

Tyrosine-protein kinase JAK1, sequence (P23458 whole entry): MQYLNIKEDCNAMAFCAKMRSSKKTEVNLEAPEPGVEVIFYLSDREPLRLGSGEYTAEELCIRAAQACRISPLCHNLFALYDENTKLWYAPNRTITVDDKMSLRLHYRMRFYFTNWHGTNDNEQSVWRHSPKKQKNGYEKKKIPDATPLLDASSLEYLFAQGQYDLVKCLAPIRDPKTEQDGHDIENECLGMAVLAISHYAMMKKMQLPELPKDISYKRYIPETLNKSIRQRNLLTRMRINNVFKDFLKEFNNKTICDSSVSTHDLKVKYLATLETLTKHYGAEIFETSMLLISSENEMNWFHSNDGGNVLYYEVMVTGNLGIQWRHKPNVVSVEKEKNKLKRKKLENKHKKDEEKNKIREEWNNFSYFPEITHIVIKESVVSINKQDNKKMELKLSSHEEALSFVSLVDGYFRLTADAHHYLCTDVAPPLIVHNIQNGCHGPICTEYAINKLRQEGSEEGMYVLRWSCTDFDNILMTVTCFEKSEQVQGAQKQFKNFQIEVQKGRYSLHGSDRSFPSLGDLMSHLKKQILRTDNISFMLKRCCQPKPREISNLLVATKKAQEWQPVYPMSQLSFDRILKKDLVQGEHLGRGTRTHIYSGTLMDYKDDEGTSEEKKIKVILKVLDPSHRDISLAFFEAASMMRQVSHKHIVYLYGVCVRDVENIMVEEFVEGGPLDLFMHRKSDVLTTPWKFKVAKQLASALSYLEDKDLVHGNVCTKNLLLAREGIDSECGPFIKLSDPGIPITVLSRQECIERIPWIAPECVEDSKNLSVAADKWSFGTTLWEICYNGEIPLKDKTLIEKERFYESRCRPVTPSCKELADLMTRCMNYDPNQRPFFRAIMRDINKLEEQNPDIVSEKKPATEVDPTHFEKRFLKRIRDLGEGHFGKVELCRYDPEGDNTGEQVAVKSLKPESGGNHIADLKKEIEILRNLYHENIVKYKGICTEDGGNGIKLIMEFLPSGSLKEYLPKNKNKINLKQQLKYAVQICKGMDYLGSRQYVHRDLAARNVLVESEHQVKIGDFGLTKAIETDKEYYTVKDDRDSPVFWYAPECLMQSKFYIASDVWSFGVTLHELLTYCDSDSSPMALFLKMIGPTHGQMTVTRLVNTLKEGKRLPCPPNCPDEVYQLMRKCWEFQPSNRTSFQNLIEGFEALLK
Tyrosine-protein kinase JAK2, sequence (O60674 whole entry): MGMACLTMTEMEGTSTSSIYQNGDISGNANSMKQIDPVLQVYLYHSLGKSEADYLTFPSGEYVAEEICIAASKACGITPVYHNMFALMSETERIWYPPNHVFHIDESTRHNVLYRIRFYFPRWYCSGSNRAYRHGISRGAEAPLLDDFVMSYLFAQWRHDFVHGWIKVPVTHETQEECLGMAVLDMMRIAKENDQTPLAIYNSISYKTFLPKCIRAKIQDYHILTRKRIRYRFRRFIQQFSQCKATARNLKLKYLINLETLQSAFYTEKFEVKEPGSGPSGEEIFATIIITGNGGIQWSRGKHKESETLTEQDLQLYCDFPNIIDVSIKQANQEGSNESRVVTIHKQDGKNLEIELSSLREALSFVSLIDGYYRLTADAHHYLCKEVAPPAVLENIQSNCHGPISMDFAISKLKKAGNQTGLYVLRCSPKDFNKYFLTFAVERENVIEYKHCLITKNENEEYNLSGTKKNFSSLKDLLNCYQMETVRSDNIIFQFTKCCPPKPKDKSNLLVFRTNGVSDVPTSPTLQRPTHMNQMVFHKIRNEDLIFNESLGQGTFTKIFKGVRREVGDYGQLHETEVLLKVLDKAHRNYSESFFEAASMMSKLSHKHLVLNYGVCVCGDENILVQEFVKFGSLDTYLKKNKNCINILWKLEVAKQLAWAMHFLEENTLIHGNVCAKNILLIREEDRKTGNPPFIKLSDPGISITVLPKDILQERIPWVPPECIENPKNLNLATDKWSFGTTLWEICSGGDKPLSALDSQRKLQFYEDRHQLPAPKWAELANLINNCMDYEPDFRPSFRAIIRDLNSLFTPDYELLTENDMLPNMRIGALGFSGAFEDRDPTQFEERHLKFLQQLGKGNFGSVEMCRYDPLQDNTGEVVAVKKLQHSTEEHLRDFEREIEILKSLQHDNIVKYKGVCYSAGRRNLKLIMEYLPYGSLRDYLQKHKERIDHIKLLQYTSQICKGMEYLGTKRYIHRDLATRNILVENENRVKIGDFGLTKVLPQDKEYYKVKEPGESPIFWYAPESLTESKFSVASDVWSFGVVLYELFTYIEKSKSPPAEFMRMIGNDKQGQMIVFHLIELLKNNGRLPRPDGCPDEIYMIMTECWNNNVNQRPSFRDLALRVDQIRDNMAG
Non-receptor tyrosine-protein kinase TYK2, sequence (P29597 whole entry): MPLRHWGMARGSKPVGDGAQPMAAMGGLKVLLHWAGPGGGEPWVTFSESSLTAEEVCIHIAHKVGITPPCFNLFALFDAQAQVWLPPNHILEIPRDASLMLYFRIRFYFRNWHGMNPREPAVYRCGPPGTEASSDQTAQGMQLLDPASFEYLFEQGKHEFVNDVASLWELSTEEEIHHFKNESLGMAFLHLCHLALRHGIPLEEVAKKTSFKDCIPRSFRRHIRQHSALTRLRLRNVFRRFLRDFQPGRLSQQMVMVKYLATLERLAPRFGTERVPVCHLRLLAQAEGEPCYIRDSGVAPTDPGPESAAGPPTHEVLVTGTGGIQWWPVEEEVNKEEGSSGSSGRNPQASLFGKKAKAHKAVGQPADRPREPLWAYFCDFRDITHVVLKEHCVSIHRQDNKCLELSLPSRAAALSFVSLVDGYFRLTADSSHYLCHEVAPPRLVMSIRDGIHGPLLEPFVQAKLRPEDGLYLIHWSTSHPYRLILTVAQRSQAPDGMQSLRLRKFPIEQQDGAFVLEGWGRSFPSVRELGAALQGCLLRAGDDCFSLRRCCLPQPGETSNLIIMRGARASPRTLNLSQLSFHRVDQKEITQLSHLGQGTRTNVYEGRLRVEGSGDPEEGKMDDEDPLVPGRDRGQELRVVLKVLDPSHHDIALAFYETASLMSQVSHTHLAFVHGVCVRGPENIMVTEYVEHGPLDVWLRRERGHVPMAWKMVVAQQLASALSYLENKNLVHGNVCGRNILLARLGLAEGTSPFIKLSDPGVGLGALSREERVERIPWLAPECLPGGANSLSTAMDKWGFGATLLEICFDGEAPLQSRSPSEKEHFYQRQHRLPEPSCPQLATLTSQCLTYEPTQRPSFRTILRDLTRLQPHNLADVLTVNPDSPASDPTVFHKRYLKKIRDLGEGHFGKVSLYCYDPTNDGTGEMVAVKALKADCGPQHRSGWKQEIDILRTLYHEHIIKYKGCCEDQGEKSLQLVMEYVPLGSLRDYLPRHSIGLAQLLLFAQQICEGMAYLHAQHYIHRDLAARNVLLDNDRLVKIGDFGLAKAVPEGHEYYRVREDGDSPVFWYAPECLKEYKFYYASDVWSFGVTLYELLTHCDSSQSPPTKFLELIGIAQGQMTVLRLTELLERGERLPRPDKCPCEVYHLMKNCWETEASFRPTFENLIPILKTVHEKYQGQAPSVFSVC

CCOCCN1CCc2cc(Nc3ncc(C)c(-c4cnn(C(C)C)c4)n3)ccc2C1
Ratio IC50 (Homo sapiens): 1.7 | Activity [1]: 40%

Cc1cnc(Nc2ccc3c(c2)CCN(C/C=C/C(=O)O)C3)nc1-c1cnn(C(C)C)c1
Ratio IC50 (Homo sapiens): 2.5 | Activity [1]: 78%

Cc1cnc(Nc2ccc3c(c2)CCN(CCCCCO)C3)nc1-c1cnn(C(C)C)c1
Activity [1]: 63%

Cc1cnc(Nc2ccc3c(c2)CN(CC#N)CC3)nc1-c1cnn(C(C)C)c1
Ratio IC50 (Homo sapiens): 4.5 | Activity [1]: 51%

Cc1cnc(Nc2ccc3c(c2)CCN3CCO)nc1-c1cnn(C(C)C)c1
Ratio IC50 (Homo sapiens): 0.54 | Activity [1]: 79%

Cc1cnc(Nc2ccc3c(c2)CN(CCO)C3)nc1-c1cnn(C(C)C)c1
Activity [1]: 67%

Cc1cnc(Nc2ccc3c(c2)CN(C(=O)/C=C/C(=O)c2ccccc2)CC3)nc1-c1cnn(C(C)C)c1
Ratio IC50 (Homo sapiens): 12.5 | Activity [1]: 47% | IC50 [2]: 30 nM | IC50 [3]: 2 nM | IC50 [4]: 89 nM | IC50 [5]: 52 nM | IC50 [6]: 16 nM | Ratio IC50 [7]: 15 | Ratio IC50 [8]: 44.5 | Ratio IC50 [9]: 26 | Ratio IC50 [10]: 8

COC(=O)CCCN1CCc2cc(Nc3ncc(C)c(-c4cnn(C(C)C)c4)n3)ccc2C1
Ratio IC50 (Homo sapiens): 1.2

Cc1cnc(Nc2ccc3c(n2)CCN(CCCO)C3)nc1-c1cnn(C(C)C)c1
Ratio IC50 (Homo sapiens): 1.1 | Activity [1]: 88%

Cc1cnc(Nc2ccc3c(c2)CCN(CCC#N)C3)nc1-c1cnn(C(C)C)c1
Ratio IC50 (Homo sapiens): 1.2 | Activity [1]: 35%

CCCNC(=O)N1CCc2cc(Nc3ncc(C)c(-c4cnn(C(C)C)c4)n3)ccc2C1
Ratio IC50 (Homo sapiens): 1.2

Cc1cnc(Nc2ccc3c(c2)CCN(CCCCO)C3)nc1-c1cnn(C(C)C)c1
Ratio IC50 (Homo sapiens): 3.3 | Activity [1]: 56%

Cc1cnc(Nc2ccc3c(c2)CCN(C(=O)CCCN(C)C)C3)nc1-c1cnn(C(C)C)c1
Ratio IC50 (Homo sapiens): 1.5

Cc1cnc(Nc2ccc3c(c2)CCN(CC#N)C3)nc1-c1cnn(C(C)C)c1
Ratio IC50 (Homo sapiens): 8.8 | Activity [1]: 50% | IC50 [2]: 43 nM | IC50 [3]: 7 nM | IC50 [4]: 54 nM | IC50 [5]: 56 nM | IC50 [6]: 108 nM | Ratio IC50 [7]: 6.1 | Ratio IC50 [8]: 7.7 | Ratio IC50 [9]: 8 | Ratio IC50 [10]: 15.4

CC(C)n1cc(-c2nc(Nc3ccc4c(c3)CCN(C(=O)CO)C4)ncc2F)cn1
Ratio IC50 (Homo sapiens): 0.79 | Activity [1]: 39%

Cc1cnc(Nc2ccc3c(c2)CN(C(=O)/C=C/CN(C)C)CC3)nc1-c1cnn(C(C)C)c1
Ratio IC50 (Homo sapiens): 29.8 | Activity [1]: 52% | IC50 [2]: 91 nM | IC50 [3]: 9 nM | IC50 [4]: 147 nM | IC50 [5]: 45 nM | IC50 [6]: 23 nM | Ratio IC50 [7]: 10 | Ratio IC50 [8]: 16 | Ratio IC50 [9]: 5 | Ratio IC50 [10]: 2.5

COC(=O)/C=C/CN1CCc2cc(Nc3ncc(C)c(-c4cnn(C(C)C)c4)n3)ccc2C1
Ratio IC50 (Homo sapiens): 36.3 | Activity [1]: 53% | IC50 [2]: 26 nM | IC50 [3]: 2 nM | IC50 [4]: 77 nM | IC50 [5]: 88 nM | IC50 [6]: 23 nM | Ratio IC50 [7]: 13 | Ratio IC50 [8]: 38.5 | Ratio IC50 [9]: 44 | Ratio IC50 [10]: 11.5 | IC50 (Vero): 2330 nM | IC50 [11]: 2890 nM | IC50 (L02): 1530 nM

CCCCN1CCc2cc(Nc3ncc(C)c(-c4cnn(C(C)C)c4)n3)ccc2C1
Ratio IC50 (Homo sapiens): 1.3 | Activity [1]: 57%

Cc1cnc(Nc2ccc3c(c2)CCN(C/C=C/C(=O)NCCN2CCCCC2)C3)nc1-c1cnn(C(C)C)c1
Ratio IC50 (Homo sapiens): 3.8

Cc1cnc(Nc2ccc3c(c2)CCN(CCCO)C3)nc1-c1cnn(C(C)C)c1
Ratio IC50 (Homo sapiens): 3.4 | Activity [1]: 62%

Cc1ccc(C(=O)/C=C/C(=O)N2CCc3ccc(Nc4ncc(C)c(-c5cnn(C(C)C)c5)n4)cc3C2)cc1
Activity [1]: 59% | IC50 [4]: 28 nM | IC50 [5]: 30 nM | IC50 [6]: 18 nM | IC50 (Vero): 2470 nM | IC50 [11]: 1690 nM | IC50 (L02): 2030 nM

C#CCN1CCc2cc(Nc3ncc(C)c(-c4cnn(C(C)C)c4)n3)ccc2C1
Activity [1]: 79%

CCN(CC)C(=O)/C=C/CN1CCc2cc(Nc3ncc(C)c(-c4cnn(C(C)C)c4)n3)ccc2C1
Ratio IC50 (Homo sapiens): 2 | Activity [1]: 66%

Cc1cnc(Nc2cc3c(cc2F)CN(CCO)CC3)nc1-c1cnn(C(C)C)c1
Ratio IC50 (Homo sapiens): > 1.2

Cc1cnc(Nc2ccc3c(c2)CCN(CCO)C3)nc1-c1cnn(C(C)C)c1
Ratio IC50 (Homo sapiens): 3.9 | Activity [1]: 66%

Cc1cnc(Nc2ccc3c(c2)CCN(C(=O)/C=C/C(=O)c2ccccc2)C3)nc1-c1cnn(C(C)C)c1
Ratio IC50 (Homo sapiens): 8.8 | Activity [1]: 41% | IC50 [2]: 47 nM | IC50 [3]: 10 nM | IC50 [4]: 120 nM | IC50 [5]: 79 nM | IC50 [6]: 34 nM | Ratio IC50 [7]: 4.7 | Ratio IC50 [8]: 12 | Ratio IC50 [9]: 7.9 | Ratio IC50 [10]: 3.4

CCNC(=O)N1CCc2cc(Nc3ncc(C)c(-c4cnn(C(C)C)c4)n3)ccc2C1
Ratio IC50 (Homo sapiens): 0.45

CC#CCN1CCc2cc(Nc3ncc(C)c(-c4cnn(C(C)C)c4)n3)ccc2C1
Ratio IC50 (Homo sapiens): 2 | Activity [1]: 85%

CC(C)n1cc(-c2nc(Nc3ccc4c(c3)CCN(CCCO)C4)ncc2F)cn1
Ratio IC50 (Homo sapiens): 1.4 | Activity [1]: 44%

Cc1ccc(C(=O)/C=C/C(=O)N2CCc3cc(Nc4ncc(C)c(-c5cnn(C(C)C)c5)n4)ccc3C2)cc1
Ratio IC50 (Homo sapiens): 51.6 | Activity [1]: 55% | IC50 [2]: 60 nM | IC50 [3]: 3 nM | IC50 [4]: 50 nM | IC50 [5]: 100 nM | IC50 [6]: 30 nM | Ratio IC50 [7]: 20 | Ratio IC50 [8]: 16.6 | Ratio IC50 [9]: 33.3 | Ratio IC50 [10]: 10 | IC50 (Vero): 1050 nM | IC50 [11]: 1430 nM | IC50 (L02): 2660 nM

Cc1ccc(C(=O)CCC(=O)N2CCc3cc(Nc4ncc(C)c(-c5cnn(C(C)C)c5)n4)ccc3C2)cc1
Ratio IC50 (Homo sapiens): 1.7

COC(=O)/C=C/CN1CCc2ccc(Nc3ncc(C)c(-c4cnn(C(C)C)c4)n3)cc2C1
Ratio IC50 (Homo sapiens): 6 | Activity [1]: 43%

CC(C)n1cc(-c2nc(Nc3ccc4c(c3)CCN(CCO)C4)ncc2F)cn1
Ratio IC50 (Homo sapiens): 0.84 | Activity [1]: 43%

CC(C)n1cc(-c2nc(Nc3ccc4c(c3)CCN(CCCCCO)C4)ncc2F)cn1
Ratio IC50 (Homo sapiens): 0.72 | Activity [1]: 42%

Cc1cnc(Nc2ccc3c(c2)CCN(C/C=C/C(=O)NC(C)(C)C)C3)nc1-c1cnn(C(C)C)c1
Ratio IC50 (Homo sapiens): 1.7

C=CCN1CCc2cc(Nc3ncc(C)c(-c4cnn(C(C)C)c4)n3)ccc2C1
Ratio IC50 (Homo sapiens): 3 | Activity [1]: 67%

CC(C)n1cc(-c2nc(Nc3ccc4c(c3)CCN(CCCCO)C4)ncc2F)cn1
Ratio IC50 (Homo sapiens): 0.75 | Activity [1]: 39%

Cc1cnc(Nc2ccc3c(c2)CCN(C(=O)Nc2cccc(Cl)c2)C3)nc1-c1cnn(C(C)C)c1
Ratio IC50 (Homo sapiens): 0.6 | Activity [1]: 99%
